≈ marks a conversion by molar mass, not a printed value. Like-named read-outs stand apart in the source and are kept apart here.
How the values were obtained:
[1] = test system: S. pneumoniae UC® 9912; assay: Minimum inhibitory concentration (MIC) by agar dilution; assay type: cell-based; conditions: Streptococcus pneumoniae
Excerpt: (§1) The oxazolidinone antibacterial agents of this invention have useful activity against a variety of organisms. The in vitro activity of compounds of this invention can be assessed by standard testing procedures such as the determination of minimum inhibitory concentration (MIC) by agar dilution as described in "Methods for Dilution Antimicrobial Susceptibility Tests for Bacteria That Grow Aerobically" (MFT) published Jan. 1983 by the National Committee for Clinical Laboratory Standards, 771 East Lancaster Avenue, Villanova, Pennsylvania 19084, USA. The activity of selected compounds of this invention against Staphylococcus aureus and Streptococcus pneumoniae are shown in Table 1.

[2] = test system: S. aureus UC® 9213; assay: as above; assay type: cell-based; conditions: Staphylococcus aureus
Excerpt: as §1

[3] = UC9912, in vitro, agar dilution, strain UC® 9912, read-out: Minimum Inhibitory Concentration S. pneumoniae UC® 9912
[4] = UC9213, in vitro, agar dilution, strain UC® 9213, read-out: Minimum Inhibitory Concentration S. aureus UC® 9213

| SMILES | MIC [1, 3] [µg/mL] | MIC [2, 4] [µg/mL] | MIC ([1]; UC9912, read-out: Minimum Inhibitory Concentration S. pneumoniae UC® 9912) [µg/mL] | MIC ([2]; UC9213, read-out: Minimum Inhibitory Concentration S. aureus UC® 9213) [µg/mL] |
| --- | --- | --- | --- | --- |
| CC(=O)NC[C@H]1CN(c2ccc(N3CCC(NC(=O)CO)C3)c(F)c2)C(=O)O1 (stereo partly drawn) [Example 13, (S)-N-((3-(3-Fluoro-4-(3-(hydroxyacetylamino)pyrrolidinyl)phenyl)-2-oxo-5-oxazolidinyl)methyl)acetamide] | 2 (≈ 5.07 µM) | 16 (≈ 40.6 µM) |  |  |
| CC(=O)NC[C@H]1CN(c2ccc(N3C[C@@H](O)[C@@H](O)C3)c(F)c2)C(=O)O1 [Example 9, (S)-N-[[3-[4-(3,4-cis-dihydroxypyrrolidinyl)-3-fluorophenyl]-2-oxo-5-oxazolidinyl]methyl]acetamide] | 2 (≈ 5.66 µM) | 8 (≈ 22.6 µM) |  |  |
| CC(=O)NC[C@H]1CN(c2ccc(N3C[C@@H](C)[C@@H](NC(=O)CO)C3)c(F)c2)C(=O)O1 (relative stereo) [Example 15] | 2 (≈ 4.9 µM) | 16 (≈ 39.2 µM) |  |  |
| CC(=O)NC[C@H]1CN(c2ccc(N3CCC(NC(=O)COCc4ccccc4)C3)c(F)c2)C(=O)O1 (stereo partly drawn) [Example 12, (S)-N-((3-(3-Fluoro-4-(3-(phenylmethoxyacetylamino)pyrrolidinyl)phenyl)-2-oxo-5-oxazolidinyl)methyl)acetamide] | 2 (≈ 4.13 µM) | 8 (≈ 16.5 µM) |  |  |
| CC(=O)NC[C@H]1CN(c2ccc(N3CCC(O)C3)c(F)c2)C(=O)O1 (stereo partly drawn) [Example 10, (S)-N-[[3-[4-(3-hydroxypyrrolidinyl)-3-fluorophenyl]-2-oxo-5-oxazolidinyl]methyl]acetamide] | 1 (≈ 2.96 µM) | 2 (≈ 5.93 µM) |  |  |
| CC(=O)NC[C@H]1CN(c2ccc(N3CCC(=O)C3)c(F)c2)C(=O)O1 [Example 11, (S)-N-((3-(3-fluoro-4-(3-oxopyrrolidinyl)phenyl)-2-oxo-5-oxazolidinyl)methyl)acetamide] | 2 (≈ 5.96 µM) | 4 (≈ 11.9 µM) |  |  |
| CC(=O)NC[C@H]1CN(c2ccc(N3C[C@@H](C)[C@@H](NS(C)(=O)=O)C3)c(F)c2)C(=O)O1 (relative stereo) [Example 16] | 1 (≈ 2.33 µM) | 8 (≈ 18.7 µM) |  |  |
| CN[C@H](CC(C)C)C(=O)N[C@H]1C(=O)N[C@@H](CC(N)=O)C(=O)N[C@H]2C(=O)N[C@H]3C(=O)N[C@H](C(=O)N[C@H](C(=O)O)c4cc(O)cc(O)c4-c4cc3ccc4O)[C@H](O)c3ccc(c(Cl)c3)Oc3cc2cc(c3O[C@@H]2O[C@H](CO)[C@@H](O)[C@H](O)[C@H]2O[C@H]2C[C@](C)(N)[C@H](O)[C@H](C)O2)Oc2ccc(cc2Cl)[C@H]1O [vancomycin, reference compound] |  |  | 0.5 (≈ 0.345 µM) | 1 (≈ 0.69 µM) |
| CC(=O)NC[C@H]1CN(c2ccc(N3CC(C)(O)C3)c(F)c2)C(=O)O1 [Example 7, (S)-N-[[3-[3-fluoro-4-(3-hydroxy-3-methyl-1-azetidinyl)phenyl]-2 oxo-5-oxazolidinyl]methyl]acetamide] | 2 (≈ 5.93 µM) | 8 (≈ 23.7 µM) |  |  |
| CC(=O)NC[C@H]1CN(c2ccc(N3C[C@@H]4OC(C)(C)O[C@@H]4C3)c(F)c2)C(=O)O1 [Example 8, (S)-N-[[3-[4-(1-Aza-5,5-dimethyl-4,6-dioxabicyclo[3,3,0]octan-1-yl)-3-fluorophenyl]-2-oxo-5-oxazolidinyl]methyl]acetamide] | 8 (≈ 20.3 µM) | 32 (≈ 81.3 µM) |  |  |

More lines, in order of falling MIC [1, 3], values ahead:

| MIC [1, 3] [µg/mL] | MIC [2, 4] [µg/mL] | SMILES | MIC ([1]; UC9912, read-out: Minimum Inhibitory Concentration S. pneumoniae UC® 9912) [µg/mL] | MIC ([2]; UC9213, read-out: Minimum Inhibitory Concentration S. aureus UC® 9213) [µg/mL] |
| --- | --- | --- | --- | --- |
| 8 (≈ 20.9 µM) | 16 (≈ 41.8 µM) | CC(=O)NC[C@H]1CN(c2ccc(N3CC(N(C)CCF)C3)c(F)c2)C(=O)O1 [Example 3, (S)-N-[[3-[3-fluoro-4-[3-[N-(2-fluoroethyl)-N-methylamino]-1-azetidinyl]phenyl]-2-oxo-5-oxazolidinyl]methyl]acetamide] |  |  |
| 4 (≈ 11.4 µM) | 8 (≈ 22.8 µM) | COC1(C)CN(c2ccc(N3C[C@H](CNC(C)=O)OC3=O)cc2F)C1 [Example 6, (S)-N-[[3-[3-fluoro-4-(3-methoxy-3-methyl-1-azetidinyl)phenyl]-2-oxo-5-oxazolidinyl]methyl]acetamide] |  |  |
| 2 (≈ 6.19 µM) | 4 (≈ 12.4 µM) | CC(=O)NC[C@H]1CN(c2ccc(N3CC(O)C3)c(F)c2)C(=O)O1 [Example 2, (S)-N-[[3-[3-fluoro-4-(3-hydroxy-1-azetidinyl)phenyl]-2-oxo-5-oxazolidinyl]methyl]acetamide] |  |  |
| 2 (≈ 5.93 µM) | 4 (≈ 11.9 µM) | COC1CN(c2ccc(N3C[C@H](CNC(C)=O)OC3=O)cc2F)C1 [Example 1, (S)-N-[[3-[3-fluoro-4-(3-methoxy-1-azetidinyl]phenyl]-2-oxo-5-oxazolidinyl]methyl]acetamide] |  |  |
| 1 (≈ 2.85 µM) | 4 (≈ 11.4 µM) | CON=C1CN(c2ccc(N3C[C@H](CNC(C)=O)OC3=O)cc2F)C1 [Example 5, (S)-N-[[3-[3-fluoro-4-[3-(methoxyimino)-1-azetidinyl]phenyl]-2-oxo-5-oxazolidinyl]methyl]acetamide] |  |  |
| 1 (≈ 2.45 µM) | 4 (≈ 9.79 µM) | COC(=O)N[C@H]1CN(c2ccc(N3C[C@H](CNC(C)=O)OC3=O)cc2F)C[C@H]1C (relative stereo) [Example 14] |  |  |
| 0.5 (≈ 1.56 µM) | 1 (≈ 3.11 µM) | CC(=O)NC[C@H]1CN(c2ccc(N3CC(=O)C3)c(F)c2)C(=O)O1 [Example 4, (S)-N-[[3-[3-fluoro-4-(3-oxo-1-azetidinyl)phenyl]-2-oxo-5-oxazolidinyl]methyl]acetamide] |  |  |
